Assay results published in US12077503B2, “Substituted cyclic amides and their use as herbicides” (FMC CORPORATION, priority 2015, dated 2024).

Legend:
Format in all cases: in vivo
[1] = tested on: barnyardgrass (Echinochloa crus-galli); test: Test G Pre-Emergence Protocol; conditions: Echinochloa crus-galli, pre-emergence, 312 h, evaluated after 13 days; for pest or weed control at 15.625 g/ha: 15.625 g ai/ha, read-out: Barnyard grass damage rating (100=total damage to plant; 0=no damage to plant); for pest or weed control at 62.5 g/ha: 62.5 g ai/ha, 100=total damage to plant, 0=no damage to plant, read-out: plant damage rating, Barnyardgrass; for pest or weed control at 250 g/ha: 250 g ai/ha, read-out: Barnyardgrass damage rating (100=total damage to plant; 0=no damage to plant)
Outline: (§1)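 Herbicidal effect was rated 13 days post-application on a scale where 100 equals total damage. Spraying took place the day after sowing, using 15.625, 62.5 or 250 g/ha of compound in a 50:50 acetone/water solution with 0.5% Tween 20.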

[2] = tested on: corn (Zea mays); test: Test G Pre-Emergence Protocol; conditions: Zea mays, pre-emergence, 312 h, evaluated after 13 days; for plant injury at 15.625 g/ha: 15.625 g ai/ha; for plant injury at 15.625 g/ha / plant injury at 250 g/ha: read-out: Corn damage rating (100=total damage to plant; 0=no damage to plant); for plant injury at 62.5 g/ha: 62.5 g ai/ha, 100=total damage to plant, 0=no damage to plant, read-out: plant damage rating, Corn; for plant injury at 250 g/ha: 250 g ai/ha
Outline: as §1

[3] = tested on: giant foxtail (Setaria faberi); test: Test G Pre-Emergence Protocol; conditions: Setaria faberi, pre-emergence, 312 h, evaluated after 13 days; for pest or weed control at 15.625 g/ha: 15.625 g ai/ha; for pest or weed control at 15.625 g/ha / pest or weed control at 250 g/ha: read-out: Foxtail, Giant damage rating (100=total damage to plant; 0=no damage to plant); for pest or weed control at 62.5 g/ha: 62.5 g ai/ha, 100=total damage to plant, 0=no damage to plant, read-out: plant damage rating, Foxtail, Giant; for pest or weed control at 250 g/ha: 250 g ai/ha
Outline: as §1

[4] = tested on: ivy-leaved morning glory (Ipomoea hederacea); test: Test G Pre-Emergence Protocol; conditions: Ipomoea, pre-emergence, 312 h, evaluated after 13 days; for pest or weed control at 15.625 g/ha: 15.625 g ai/ha, read-out: Morning-glory, Ivy-leaved damage rating (100=total damage to plant; 0=no damage to plant); for pest or weed control at 62.5 g/ha: 62.5 g ai/ha, 100=total damage to plant, 0=no damage to plant, read-out: plant damage rating, Morningglory, Ivy-leaved; for pest or weed control at 250 g/ha: 250 g ai/ha, read-out: Morningglory, Ivy-leaved damage rating (100=total damage to plant; 0=no damage to plant)
Outline: as §1

[5] = tested on: redroot pigweed (Amaranthus retroflexus); test: Test G Pre-Emergence Protocol; conditions: Amaranthus retroflexus, pre-emergence, 312 h, evaluated after 13 days; for pest or weed control at 15.625 g/ha: 15.625 g ai/ha; for pest or weed control at 15.625 g/ha / pest or weed control at 250 g/ha: read-out: Pigweed, Redroot damage rating (100=total damage to plant; 0=no damage to plant); for pest or weed control at 62.5 g/ha: 62.5 g ai/ha, 100=total damage to plant, 0=no damage to plant, read-out: plant damage rating, Pigweed, Redroot; for pest or weed control at 250 g/ha: 250 g ai/ha
Outline: as §1

[6] = tested on: velvetleaf (Abutilon theophrasti); test: Test G Pre-Emergence Protocol; conditions: Abutilon theophrasti, pre-emergence, 312 h, evaluated after 13 days; for pest or weed control at 15.625 g/ha: 15.625 g ai/ha; for pest or weed control at 15.625 g/ha / pest or weed control at 250 g/ha: read-out: Velvetleaf damage rating (100=total damage to plant; 0=no damage to plant); for pest or weed control at 62.5 g/ha: 62.5 g ai/ha, 100=total damage to plant, 0=no damage to plant, read-out: plant damage rating, Velvetleaf; for pest or weed control at 250 g/ha: 250 g ai/ha
Outline: as §1

[7] = tested on: barnyardgrass (Echinochloa crus-galli); test: Test G Post-Emergence Protocol; conditions: Echinochloa crus-galli, post-emergence, 312 h; for pest or weed control at 15.625 g/ha: 15.625 g ai/ha, evaluated after 13 days (100=total damage to plant; 0=no damage to plant), read-out: Barnyardgrass damage rating; for pest or weed control at 62.5 g/ha: 62.5 g ai/ha, read-out: Barnyardgrass damage rating (100=total damage to plant; 0=no damage to plant); for pest or weed control at 62.5 g/ha / pest or weed control at 250 g/ha: evaluated after 13 days; for pest or weed control at 250 g/ha: 250 g ai/ha, read-out: damage to plant, Barnyardgrass (100=total damage to plant; 0=no damage to plant)
Outline: (§2)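 Eight days post-sowing, plants received a spray of test compound (acetone/water 50:50, 0.5% Tween 20) at 15.625, 62.5 or 250 g/ha. Glasshouse regime thereafter: 24/16 °C, 14 h light, 65% humidity. Assessment after 13 days on a 0–100 damage scale.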

[8] = tested on: corn (Zea mays); test: Test G Post-Emergence Protocol; conditions: Zea mays, post-emergence, 312 h; for plant injury at 15.625 g/ha: 15.625 g ai/ha, evaluated after 13 days (100=total damage to plant; 0=no damage to plant), read-out: Corn damage rating; for plant injury at 62.5 g/ha: 62.5 g ai/ha, read-out: Corn damage rating (100=total damage to plant; 0=no damage to plant); for plant injury at 62.5 g/ha / plant injury at 250 g/ha: evaluated after 13 days; for plant injury at 250 g/ha: 250 g ai/ha, read-out: damage to plant, Corn (100=total damage to plant; 0=no damage to plant)
Outline: as §2

[9] = tested on: giant foxtail (Setaria faberi); test: Test G Post-Emergence Protocol; conditions: Setaria faberi, post-emergence, 312 h; for pest or weed control at 15.625 g/ha: 15.625 g ai/ha, evaluated after 13 days (100=total damage to plant; 0=no damage to plant), read-out: Foxtail, Giant damage rating; for pest or weed control at 62.5 g/ha: 62.5 g ai/ha, read-out: Foxtail, Giant damage rating (100=total damage to plant; 0=no damage to plant); for pest or weed control at 62.5 g/ha / pest or weed control at 250 g/ha: evaluated after 13 days; for pest or weed control at 250 g/ha: 250 g ai/ha, read-out: damage to plant, Foxtail, Giant (100=total damage to plant; 0=no damage to plant)
Outline: as §2

[10] = tested on: ivy-leaved morning glory (Ipomoea hederacea); test: Test G Post-Emergence Protocol; conditions: Ipomoea, post-emergence, 312 h; for pest or weed control at 15.625 g/ha: 15.625 g ai/ha, evaluated after 13 days (100=total damage to plant; 0=no damage to plant), read-out: Morningglory, Ivy-leaved damage rating; for pest or weed control at 62.5 g/ha: 62.5 g ai/ha, read-out: Morningglory, Ivy-leaved damage rating (100=total damage to plant; 0=no damage to plant); for pest or weed control at 62.5 g/ha / pest or weed control at 250 g/ha: evaluated after 13 days; for pest or weed control at 250 g/ha: 250 g ai/ha, read-out: damage to plant, Morningglory, Ivy-leaved (100=total damage to plant; 0=no damage to plant)
Outline: as §2

[11] = tested on: redroot pigweed (Amaranthus retroflexus); test: Test G Post-Emergence Protocol; conditions: Amaranthus retroflexus, post-emergence, 312 h; for pest or weed control at 15.625 g/ha: 15.625 g ai/ha, evaluated after 13 days (100=total damage to plant; 0=no damage to plant), read-out: Pigweed, Redroot damage rating; for pest or weed control at 62.5 g/ha: 62.5 g ai/ha, read-out: Pigweed, Redroot damage rating (100=total damage to plant; 0=no damage to plant); for pest or weed control at 62.5 g/ha / pest or weed control at 250 g/ha: evaluated after 13 days; for pest or weed control at 250 g/ha: 250 g ai/ha, read-out: damage to plant, Pigweed, Redroot (100=total damage to plant; 0=no damage to plant)
Outline: as §2

[12] = tested on: velvetleaf (Abutilon theophrasti); test: Test G Post-Emergence Protocol; conditions: Abutilon theophrasti, post-emergence, 312 h; for pest or weed control at 15.625 g/ha: 15.625 g ai/ha, evaluated after 13 days (100=total damage to plant; 0=no damage to plant), read-out: Velvetleaf damage rating; for pest or weed control at 62.5 g/ha: 62.5 g ai/ha, read-out: Velvetleaf damage rating (100=total damage to plant; 0=no damage to plant); for pest or weed control at 62.5 g/ha / pest or weed control at 250 g/ha: evaluated after 13 days; for pest or weed control at 250 g/ha: 250 g ai/ha, read-out: damage to plant, Velvetleaf (100=total damage to plant; 0=no damage to plant)
Outline: as §2

Row | SMILES | pest or weed control at 15.625 g/ha [1] [%] | pest or weed control at 62.5 g/ha [1] [%] | pest or weed control at 250 g/ha [1] [%] | plant injury at 15.625 g/ha [2] [%] | plant injury at 62.5 g/ha [2] [%] | plant injury at 250 g/ha [2] [%] | pest or weed control at 15.625 g/ha [3] [%] | pest or weed control at 62.5 g/ha [3] [%] | pest or weed control at 250 g/ha [3] [%] | pest or weed control at 15.625 g/ha [4] [%] | pest or weed control at 62.5 g/ha [4] [%] | pest or weed control at 250 g/ha [4] [%] | pest or weed control at 15.625 g/ha [5] [%] | pest or weed control at 62.5 g/ha [5] [%] | pest or weed control at 250 g/ha [5] [%] | pest or weed control at 15.625 g/ha [6] [%] | pest or weed control at 62.5 g/ha [6] [%] | pest or weed control at 250 g/ha [6] [%] | pest or weed control at 15.625 g/ha [7] [%] | pest or weed control at 62.5 g/ha [7] [%] | also measured
1 | Cc1c(Br)cccc1NC(=O)[C@@H]1C(=O)N(C)C[C@H]1c1ccc(C(F)(F)F)cc1 (racemic) [Compound 1619] | 0 | 0 | 10 | 0 | 0 | 0 | 0 | 0 | 70 | 0 | 0 | 10 | 0 | 0 | 20 | 0 | 0 | 10 | 0 | 10 | pest or weed control at 250 g/ha [7]: 70%; plant injury at 15.625 g/ha [8]: 0%; plant injury at 62.5 g/ha [8]: 0%; plant injury at 250 g/ha [8]: 10%; pest or weed control at 15.625 g/ha [9]: 0%; pest or weed control at 62.5 g/ha [9]: 60%; pest or weed control at 250 g/ha [9]: 70%; pest or weed control at 15.625 g/ha [10]: 0%; pest or weed control at 62.5 g/ha [10]: 10%; pest or weed control at 250 g/ha [10]: 30%; pest or weed control at 15.625 g/ha [11]: 0%; pest or weed control at 62.5 g/ha [11]: 20%; pest or weed control at 250 g/ha [11]: 50%; pest or weed control at 15.625 g/ha [12]: 0%; pest or weed control at 62.5 g/ha [12]: 0%; pest or weed control at 250 g/ha [12]: 0%
2 | Cc1nccc(NC(=O)[C@@H]2C(=O)N(C)C[C@H]2c2ccc(C(F)(F)F)cc2)c1C (racemic) [Compound 1630] | 0 | 0 | 0 | 0 | 0 | 0 | 0 | 0 | 0 | 0 | 0 | 0 | 0 | 0 | 0 | 0 | 0 | 0 | 0 | 0 | pest or weed control at 250 g/ha [7]: 0%; plant injury at 15.625 g/ha [8]: 0%; plant injury at 62.5 g/ha [8]: 0%; plant injury at 250 g/ha [8]: 0%; pest or weed control at 15.625 g/ha [9]: 0%; pest or weed control at 62.5 g/ha [9]: 0%; pest or weed control at 250 g/ha [9]: 0%; pest or weed control at 15.625 g/ha [10]: 0%; pest or weed control at 62.5 g/ha [10]: 0%; pest or weed control at 250 g/ha [10]: 0%; pest or weed control at 15.625 g/ha [11]: 0%; pest or weed control at 62.5 g/ha [11]: 0%; pest or weed control at 250 g/ha [11]: 0%; pest or weed control at 15.625 g/ha [12]: 0%; pest or weed control at 62.5 g/ha [12]: 0%; pest or weed control at 250 g/ha [12]: 0%
